According to patent US9029095B2, “Method and kits for determining platelet susceptibility to activation in a patient” (Institut National de la Sante et de la Recherche Medicale …, priority 2010, dated 2015):
Where “and” joins values, the source holds several entries; their conditions need not be identical. Identical values can stand only once. Entries after “also recorded” stand apart in the source; their conditions may differ. Like-named read-outs stand apart in the source and are kept apart here. Values belong to the molecule of their own block, whether it stands above or below them.

Columns and labels:
[1] = test system: GPVI dimerization on platelets; assay: Effect of agonists and inhibitors on 9E18 binding to platelets (GPVI dimerization), flow cytometry; assay type: cell-based, human; conditions: for effect on 9E18 binding / GPVI dimerization of activated platelets / effect on 9E18 binding to resting as well as activated platelets: ADP-; for effect on 9E18 binding / GPVI dimerization of activated platelets: TRAP- or PMA-activated platelets; for effect on 9E18 binding to resting as well as activated platelets: TRAP- or PMA-activated washed platelets
[2] = test system: FcRγ; assay: FcRγ phosphorylation in activated platelets; assay type: cell-based, human; conditions: conditions leading to GPVI dimerization
[3] = test system: P-selectin exposure on platelets; assay: P-selectin exposure on platelets, flow cytometry; assay type: cell-based, human; conditions: washed platelets
[4] = test system: platelet adhesion to immobilized collagen; assay: GPVI-dependent platelet adhesion to immobilized collagen (static); assay type: cell-based, human; conditions: PMA-treated platelets
[5] = test system: ADP-induced GPVI dimerization; assay: ADP-induced 9E18 binding to platelets (PRP) of patients treated with P2Y12 antagonists, ex vivo; assay type: in vivo, human
Text: FIG. 3: 9E18 as a marker of platelet activation and reactivity: Blood samples were obtained from (A) a cohort of patients with coronary artery disease admitted for percutaneous coronary intervention (n=45) and (B) healthy volunteers (n=40). For each subject, GPVI dimerization, represented by the extent of 9E18 positive platelets, is plotted against P-selectin exposure. Blood samples were obtained from (C) patients treated by prasugel and (D) healthy volunteers. For each subject the binding of FITC-coupled 9E18 to platelets was measured by flow cytometry after incubation of the PRP with buffer or ADP (10 μM) for 20 min.
FIG. 4: 9E18 as a marker of platelet activation and reactivity A: 9E18 binding to platelets and P-selectin exposure were measured in blood samples (PRP) obtained from a cohort of patients with CAD admitted for percutaneous coronary intervention (n=45). B: ADP-induced binding of 9E18 to platelets was measured on blood samples (PRP) from normal subjects and patients with CAD treated by clopidogrel (n=26). Results are expressed as the ratio between the levels of 9E18 binding to ADP-stimulated/non-stimulated samples×100.C: ADP-induced binding to platelets of patients treated by clopidogrel was plotted against corresponding data of the VASP phosphorylation assay.
Blood samples were obtained from a cohort of patients with coronary artery disease (CAD) referred to the department of cardiology of Bichat hospital for percutaneous coronary intervention (BIOCORE-2 study, Clinical Trial Registration—URL: http://clinicaltrials.gov/ct2/show/NCT01186666?term=NCT01186666&rank=1). The study complies with the Declaration of Helsinky and was approved by the institutional ethics committee. All of the patients provided written informed consent. Blood was drawn on 0.109M citrate the day after percutaneous coronary intervention (PCI). PRP, a waste of the established protocol, was used for this study. Analysis was performed less than one hour after blood sampling, on PRP using FITC-coupled 9E18, 3J24 or anti-P-selectin. […]

[6] = molecular target: T1, GPVI dimers on shear-activated platelets (Homo sapiens, UniProt Q9HCN6); assay: Shear-induced platelet activation, 9E18 binding; assay type: cell-based; conditions: washed platelets
T1 construct: Blood was obtained from healthy volunteers; endogenous in cells; host or cells: human platelets (whole blood, PRP, washed platelets or lysates) from healthy volunteers or coronary artery disease patients
T1 sequence (Q9HCN6 21-339): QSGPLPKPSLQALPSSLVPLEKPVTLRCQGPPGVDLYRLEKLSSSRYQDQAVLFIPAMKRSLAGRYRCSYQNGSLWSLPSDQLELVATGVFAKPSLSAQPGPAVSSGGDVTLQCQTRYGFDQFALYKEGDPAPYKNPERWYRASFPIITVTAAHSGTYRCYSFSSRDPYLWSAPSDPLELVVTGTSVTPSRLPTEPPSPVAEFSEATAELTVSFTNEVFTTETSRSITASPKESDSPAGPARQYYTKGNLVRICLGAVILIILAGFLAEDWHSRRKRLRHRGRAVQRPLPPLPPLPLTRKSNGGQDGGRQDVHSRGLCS
T1 sequence (P30273 19-86 partner): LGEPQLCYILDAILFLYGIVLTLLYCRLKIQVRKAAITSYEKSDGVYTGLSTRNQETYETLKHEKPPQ

[7] = molecular target: T2, 9E18 binding to immobilized GPVI-Fc (Homo sapiens, UniProt Q9HCN6); assay: Competition: binding of 9E18 to immobilized GPVI-Fc in presence of soluble GPVI
T2 construct: Recombinant soluble GPVI was obtained as the extracellular domain of human GPVI; made in house; host or cells: HEK cells
T2 sequence (Q9HCN6 21-267 limits assumed): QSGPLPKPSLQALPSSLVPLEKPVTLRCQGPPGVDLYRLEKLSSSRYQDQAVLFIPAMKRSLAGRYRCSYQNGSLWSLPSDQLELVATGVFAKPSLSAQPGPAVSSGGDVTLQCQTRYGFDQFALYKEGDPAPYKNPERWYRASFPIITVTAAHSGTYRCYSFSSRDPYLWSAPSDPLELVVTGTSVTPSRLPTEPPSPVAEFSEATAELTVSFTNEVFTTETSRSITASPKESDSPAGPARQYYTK

[8] = molecular target: collagen; assay: Binding of recombinant soluble GPVI to collagen (purified proteins, microtitration wells); set-up: species or system equine; conditions: Example 1
[9] = molecular target: T3, 9E18 binding to stimulated platelets (Homo sapiens, UniProt Q9HCN6); assay: Inhibition of 9E18 binding to stimulated platelets by soluble GPVI or IV.3; assay type: cell-based
T3 construct: Blood was obtained from healthy volunteers; endogenous in cells; host or cells: human platelets (whole blood, PRP, washed platelets or lysates) from healthy volunteers or coronary artery disease patients
T3 sequence (Q9HCN6 21-339): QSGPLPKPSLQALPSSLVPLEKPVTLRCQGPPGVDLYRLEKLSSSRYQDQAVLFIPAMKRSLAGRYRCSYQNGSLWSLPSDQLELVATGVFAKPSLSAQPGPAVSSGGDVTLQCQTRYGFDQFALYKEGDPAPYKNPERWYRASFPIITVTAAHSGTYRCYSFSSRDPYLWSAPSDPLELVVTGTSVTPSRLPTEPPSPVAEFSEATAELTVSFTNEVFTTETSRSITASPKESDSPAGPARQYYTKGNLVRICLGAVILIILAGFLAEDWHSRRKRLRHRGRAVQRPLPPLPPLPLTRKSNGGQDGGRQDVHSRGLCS
T3 sequence (P30273 19-86 partner): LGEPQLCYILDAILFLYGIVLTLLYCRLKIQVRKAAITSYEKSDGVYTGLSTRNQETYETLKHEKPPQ
Description: Resting and activated platelets (5×10^7 mL^−1 in whole blood or PRP or buffer) were incubated with FITC-coupled anti-GPVI or P-selectin antibodies for 20 min and, when needed fixed with 1% PFA. Samples were analyzed by flow cytometry using Epics XL.MCL (Coulter) or LSRII (Becton Dickinson Biosciences) apparatus. Platelet glycoprotein quantification was performed using the quantification kit, Platelet GP screen (Byocytex, Marseille, France).

Molecule: CC(=O)N[C@@H](C(=O)O)C(C)(C)SN=O (racemic) [SNAP]
effect on 9E18 binding / GPVI dimerization of activated platelets [1]: same effect; also recorded: inhibited
effect on 9E18 binding to resting as well as activated platelets [1]: inhibited

Molecule: CSc1nc(N)c2ncn([C@@H]3O[C@H](COP(=O)(O)O)[C@@H](O)[C@H]3O)c2n1 [2MeSAMP]
effect on 9E18 binding to ADP- or TRAP-stimulated platelets [1]: inhibited; also recorded: prevented
effect on ADP-induced 9E18 binding to platelets [1]: blocked

Molecule: Nc1ncnc2c1ncn2[C@@H]1O[C@H](COP(=O)(O)OP(=O)(O)O)[C@@H](O)[C@H]1O [ADP, adenosine diphosphate]
effect of agonist on binding of 9E18 to platelets [1]: increased
FcRγ phosphorylation in activated platelets [2]: not phosphorylated
surface exposure of P-selectin induced by agonist [3]: induced surface exposure of P-selectin

Molecule: CNC[C@H](O)c1ccc(O)c(O)c1 [Epinephrine]
factor of increase of 9E18 binding to platelets [1]: 1.5

Molecule: CCCCC[C@H](O)/C=C/[C@H]1[C@H](O)CC(=O)[C@@H]1CCCCCCC(=O)O [PGE1, prostaglandin E1]
effect on 9E18 binding to ADP- or TRAP-stimulated platelets ([1]; ADP or TRAP): dropped to basal level
effect on 9E18 binding / GPVI dimerization of activated platelets [1]: drastically reduced; also recorded: inhibited
effect on PMA-induced 9E18 binding to platelets ([1]; PMA): greatly decreased
effect on 9E18 binding in the absence of agonist ([1]; preincubation, no agonist): lowered
effect on 9E18 binding to resting as well as activated platelets [1]: reduced

Molecule: CCCCCCCCCCCCCC(=O)O[C@@H]1[C@@H](C)[C@@]2(O)[C@@H](C=C(CO)C[C@]3(O)C(=O)C(C)=C[C@@H]23)[C@@H]2C(C)(C)[C@]12OC(C)=O [PMA]
effect on GPVI-dependent platelet adhesion to immobilized collagen [4]: increase
effect of agonist on binding of 9E18 to platelets [1]: significantly increased
level of 9E18 binding to PMA-treated platelets ([1]; PMA alone): 31.5±4% and 27.7%
FcRγ phosphorylation in activated platelets [2]: not phosphorylated

Molecule: Cc1ccc(-c2nn(C(C)(C)C)c3ncnc(N)c23)cc1 [PP1]
level of PMA-induced 9E18 binding in presence of inhibitor ([1]; 20 μM inhibitor, PMA-treated platelets): 28.4%

Molecule: COC(=O)[C@H](c1ccccc1Cl)N1CCc2sccc2C1 [clopidogrel, (+)-(S)-methyl 2-(2-chlorophenyl)-2-(6,7-dihydrothieno[3,2-c]pyridin-5(4H)-yl)acetate]
ADP-induced 9E18 binding response in treated patients vs normal subjects ([5]; 75 mg, PRP): highly significant reduction

Molecule: COc1ccc2c(c1)c(CC(=O)O)c(C)n2C(=O)c1ccc(Cl)cc1 [indomethacine, Indomethacin]
effect on 9E18 binding to ADP- or TRAP-stimulated platelets ([1]; ADP or TRAP): no effect

Molecule: CC(=O)Oc1cc2c(s1)CCN(C(C(=O)C1CC1)c1ccccc1F)C2 (stereo not shown) [prasugrel]
ADP-induced increase of 9E18 binding to platelets of treated patients ([5]; PRP, ADP 10 μM, good responders by VASP test): not to platelets of 9 patients treated by prasugrel; also recorded: blocked
9E18 binding and VASP phosphorylation in response to ADP ([5]; one treated patient (low response)): remained increased

Molecule: apyrase
effect on ADP-induced 9E18 binding to platelets ([1]; ADP): fully prevented
inhibition of ADP-induced binding of 9E18 ([1]; ADP): 85%
reduction of TRAP-induced binding of 9E18 [1]: 75%
reduction of TRAP-induced binding of 9E18 ([1]; listed as Apyrase): 50%

effect of addition on shear-induced platelet aggregation and level of 9E18 binding [6]: parallel increase
Molecule: vWF: von Willebrand factor added to washed platelets

IC50, inhibition of 9E18 binding to immobilized GPVI-Fc by soluble GPVI [7]: 3.7 ± 2.2 µg/mL
inhibition of 9E18 binding to GPVI-Fc ([7]; GPVI-His up to 10 μg·mL^−1): 70%
IC50 ([7]; molar value in brackets, Example 1, read-out: IC50, inhibition of 9E18 binding to immobilized GPVI-Fc by soluble GPVI): 74 nM
Kd ([7]; value in brackets after IC50, Example 2, read-out: Kd from competition of 9E18 binding to GPVI-Fc): 78 nM
affinity for collagen [8]: 14.7 ± 3.27 µg/mL
inhibition of 9E18 binding to stimulated platelets [9]: not
inhibition of 9E18 binding to stimulated platelets ([9]; listed as monomers): not by monomers
B1: GPVI-His: extracellular domain of human GPVI fused to a poly-His Tag, monomeric (protein, UniProt Q9HCN6 21-267, looked up)
extracellular domain: QSGPLPKPSLQALPSSLVPLEKPVTLRCQGPPGVDLYRLEKLSSSRYQDQAVLFIPAMKRSLAGRYRCSYQNGSLWSLPSDQLELVATGVFAKPSLSAQPGPAVSSGGDVTLQCQTRYGFDQFALYKEGDPAPYKNPERWYRASFPIITVTAAHSGTYRCYSFSSRDPYLWSAPSDPLELVVTGTSVTPSRLPTEPPSPVAEFSEATAELTVSFTNEVFTTETSRSITASPKESDSPAGPARQYYTK
modifications: extracellular domain poly-His tag
notes: extracellular domain of human GPVI fused to a poly-His Tag, monomeric
